{"source": "ChEMBL document CHEMBL5149973", "about": "“Agaricus bisporus-Derived Glucosamine Hydrochloride Facilitates Skeletal Injury Repair through Bmp Signaling in Zebrafish Osteoporosis Model” (J Nat Prod, 2021)", "key": {"Osteoblast [1]": {"tested_on": "Osteoblast", "assay": "Induction of osteoblast differentiation in transgenic osx mCherry Zebrafish embryo assessed as increase in Col1a2 mRNA expression in fin at 0.1 % measured after 15 days by semiquantitative PCR analysis", "assay_type": "functional, tissue-based", "conditions": "Danio rerio, time 15.0 day"}, "Danio rerio [2]": {"species_on_record": "Danio rerio", "assay": "Induction of Zebrafish embryo skeletal development assessed as increase in Bmp2b mRNA expression level expanded from ventral side to dorsal side at 0.1 to 0.3 % measured at 24 hrs post fertilization by ISH analysis", "assay_type": "functional, tissue-based", "conditions": "dose 0.1-0.3 %"}, "[3]": {"assay": "Induction of Zebrafish embryo skeletal development assessed as mortality rate of embryo at 0.01 % measured after 72 hrs post fertilization by Alcian blue staining based assay", "assay_type": "functional, Danio rerio"}, "Osteoblast [4]": {"tested_on": "Osteoblast", "assay": "Induction of osteoblast differentiation in transgenic osx mCherry Zebrafish embryo assessed as increase in Col10a1a mRNA expression in fin at 0.1 % measured after 15 days by semiquantitative PCR analysis", "assay_type": "functional", "conditions": "Danio rerio, time 15.0 day"}, "Danio rerio [5]": {"species_on_record": "Danio rerio", "assay": "Induction of Zebrafish embryo skeletal development assessed as increase in Bmp4 mRNA expression level in bud region at 0.1 to 0.3 % measured at 24 hrs post fertilization by ISH analysis", "assay_type": "functional, tissue-based", "conditions": "dose 0.1-0.3 %"}, "Danio rerio [6]": {"species_on_record": "Danio rerio", "assay": "Induction of Zebrafish embryo skeletal development assessed as nuclear localization of p-Smad1 in tail at 0.1 % measured at 24 to 72 hrs post fertilization by DAPI staining based analysis", "assay_type": "functional, tissue-based", "conditions": "time 24-72 hrs"}, "Osteoblast [7]": {"tested_on": "Osteoblast", "assay": "Induction of osteoblast differentiation in Zebrafish embryo assessed as upregulation of runx2b gene expression in operculum measured at 0.75 to 72 hrs post fertilization at 0.05 to 0.3 % by […] analysis", "assay_type": "functional, tissue-based", "conditions": "Danio rerio, dose 0.05-0.3 %, time 0.75-72 hrs"}, "Danio rerio [8]": {"species_on_record": "Danio rerio", "assay": "Induction of Zebrafish embryo skeletal development assessed as upregulation of col1a2 gene expression at 0.05 to 0.3 % measured after 72 hrs post fertilization by […] analysis", "assay_type": "functional, tissue-based", "conditions": "dose 0.05-0.3 %"}, "[9]": {"assay": "Induction of Zebrafish Larva cartilage development assessed as increase in H1 phenotype ratio at 0.1 % measured after 5 days post fertilization by Alcian blue staining based assay", "assay_type": "functional, Danio rerio", "conditions": "time 5 day"}, "Danio rerio [10]": {"species_on_record": "Danio rerio", "assay": "Induction of Zebrafish Larva caudal fin regeneration assessed as increase in bone mass measured for 15 days by Calcein staining based assay", "assay_type": "functional", "conditions": "time 15.0 day"}, "Danio rerio [11]": {"species_on_record": "Danio rerio", "assay": "Suppression of Bmp signaling in mCherry Zebrafish embryos assessed as increase in colocalization in tail by measuring fluorescence intensity at 0.1 % measured at 36 hrs post fertilization", "assay_type": "functional, organism-based", "conditions": "Embryo"}, "Osteoblast [12]": {"tested_on": "Osteoblast", "assay": "Induction of osteoblast differentiation in Zebrafish embryo assessed as upregulation of runx2b gene expression in parasphenoid measured at 0.75 to 72 hrs post fertilization at 0.05 to 0.3 % by […] analysis", "assay_type": "functional", "conditions": "Danio rerio, dose 0.05-0.3 %, time 0.75-72 hrs"}, "Danio rerio [13]": {"species_on_record": "Danio rerio", "assay": "Suppression of Bmp signaling in Zebrafish embryo assessed as reduction in slight loss of tail tissue at 0.1 % measured at 26 hrs post fertilization in presence of dorsomorphin", "assay_type": "functional", "parameters": "scale not given: the % may be the effect or the level left"}, "Danio rerio [14]": {"species_on_record": "Danio rerio", "assay": "Anti-osteoporosis activity in FAC-induced skeletal injury Zebrafish assessed as rescue of skeletal density in spine at 0.1 % measured for 10 day post fertilization", "assay_type": "functional, organism-based"}, "Osteoblast [15]": {"tested_on": "Osteoblast", "assay": "Induction of osteoblast differentiation in transgenic osx mCherry Zebrafish embryo assessed as increase in Sox9a mRNA expression in fin at 0.1 % measured after 15 days by semiquantitative PCR analysis", "assay_type": "functional, tissue-based", "conditions": "Danio rerio, time 15.0 day"}, "Danio rerio [16]": {"species_on_record": "Danio rerio", "assay": "Induction of Zebrafish embryo skeletal development assessed as increase in Bmp4 mRNA expression level in gastrula stage at 0.05 to 0.1 % measured at 24 hrs post fertilization by ISH analysis", "assay_type": "functional, tissue-based", "conditions": "dose 0.05-0.1 %"}, "Danio rerio [17]": {"species_on_record": "Danio rerio", "assay": "Anti-osteoporosis activity in FAC-induced skeletal injury Zebrafish assessed as increase in cumulative bone optical density in spine at 0.1 % measured for 10 day post fertilization", "assay_type": "functional, organism-based"}, "Danio rerio [18]": {"species_on_record": "Danio rerio", "assay": "Induction of Zebrafish embryo skeletal development assessed as increase in Bmp2b mRNA expression level in gastrula stage at 0.05 to 0.1 % measured at 24 hrs post fertilization by ISH analysis", "assay_type": "functional, tissue-based", "conditions": "dose 0.05-0.1 %"}, "Danio rerio [19]": {"species_on_record": "Danio rerio", "assay": "Induction of Zebrafish embryo skeletal development assessed as increase in Bmp7a mRNA expression level in gastrula stage at 0.05 to 0.1 % measured at 24 hrs post fertilization by ISH analysis", "assay_type": "functional, tissue-based", "conditions": "dose 0.05-0.1 %"}, "Danio rerio [20]": {"species_on_record": "Danio rerio", "assay": "Induction of Zebrafish embryo skeletal development assessed as increase in Bmp4 mRNA expression level in head at 0.1 to 0.3 % measured at 24 hrs post fertilization by ISH analysis", "assay_type": "functional, tissue-based", "conditions": "dose 0.1-0.3 %"}, "[21]": {"assay": "Induction of Zebrafish embryo skeletal development assessed as mortality rate of embryo at 0.3 % measured after 72 hrs post fertilization by Alcian blue staining based assay", "assay_type": "functional, Danio rerio"}, "Osteoblast [22]": {"tested_on": "Osteoblast", "assay": "Induction of osteoblast differentiation in transgenic osx mCherry Zebrafish embryo assessed as increase in Sox9b mRNA expression in fin at 0.1 % measured after 15 days by semiquantitative PCR analysis", "assay_type": "functional, tissue-based", "conditions": "Danio rerio, time 15.0 day"}, "Danio rerio [23]": {"species_on_record": "Danio rerio", "assay": "Suppression of Bmp signaling in Zebrafish embryo assessed as reduction in indistinctive tail tissue at 0.1 % measured at 26 hrs post fertilization in presence of dorsomorphin", "assay_type": "functional", "parameters": "scale not given: the % may be the effect or the level left"}, "Danio rerio [24]": {"species_on_record": "Danio rerio", "assay": "Anti-osteoporosis activity in FAC-induced skeletal injury Zebrafish larvae assessed as increase in Sox9b mRNA expression level measured for 10 day post fertilization by semiquantitative-PCR analysis", "assay_type": "functional, organism-based", "conditions": "Larva"}, "Danio rerio [25]": {"species_on_record": "Danio rerio", "assay": "Induction of Zebrafish embryo skeletal development assessed as increase in Bmp2b mRNA expression level in bud region at 0.1 to 0.3 % measured at 24 hrs post fertilization by ISH analysis", "assay_type": "functional, tissue-based", "conditions": "dose 0.1-0.3 %"}, "Danio rerio [26]": {"species_on_record": "Danio rerio", "assay": "Induction of transgenic Zebrafish embryo skeletal development assessed as increase in GFP expression level in head at 0.05 to 0.3 % measured at 24 to 72 hrs post fertilization by DAPI staining based analysis", "assay_type": "functional, tissue-based", "conditions": "dose 0.05-0.3 %, time 24-72 hrs"}, "[27]": {"assay": "Induction of Zebrafish embryo skeletal development assessed as mortality rate of embryo at 0.05 % measured after 72 hrs post fertilization by Alcian blue staining based assay", "assay_type": "functional, Danio rerio"}, "[28]": {"assay": "Induction of Zebrafish embryo skeletal development assessed as mortality rate of embryo at 0.03 % measured after 72 hrs post fertilization by Alcian blue staining based assay", "assay_type": "functional, Danio rerio"}, "[29]": {"assay": "Induction of Zebrafish embryo skeletal development assessed as mortality rate of embryo at 0.5 % measured after 72 hrs post fertilization by Alcian blue staining based assay", "assay_type": "functional, Danio rerio"}, "Danio rerio [30]": {"species_on_record": "Danio rerio", "assay": "Induction of Zebrafish embryo skeletal development assessed as nuclear localization of p-Smad5 in tail at 0.1 % measured at 24 to 72 hrs post fertilization by DAPI staining based analysis", "assay_type": "functional, tissue-based", "conditions": "time 24-72 hrs"}, "Danio rerio [31]": {"species_on_record": "Danio rerio", "assay": "Anti-osteoporosis activity in FAC-induced skeletal injury Zebrafish larvae assessed as increase in BGP mRNA expression level measured for 10 day post fertilization by semiquantitative-PCR analysis", "assay_type": "functional, organism-based", "conditions": "Larva"}, "Danio rerio [32]": {"species_on_record": "Danio rerio", "assay": "Induction of Zebrafish embryo skeletal development assessed as increase in Smad1 gene expression level in coccygeal vertebra at 0.1 % measured for 0.75 to 24 hrs post fertilization by ISH analysis", "assay_type": "functional, tissue-based", "conditions": "time 0.75-24 hrs"}, "Danio rerio [33]": {"species_on_record": "Danio rerio", "assay": "Induction of Zebrafish embryo skeletal development assessed as increase in Smad5 gene expression level in head at 0.1 % measured for 0.75 to 24 hrs post fertilization by ISH analysis", "assay_type": "functional, tissue-based", "conditions": "time 0.75-24 hrs"}, "Danio rerio [34]": {"species_on_record": "Danio rerio", "assay": "Induction of Zebrafish embryo skeletal development assessed as upregulation of col10a1a gene expression in operculum at 0.01 to 0.3 % measured after 72 hrs post fertilization by […] analysis", "assay_type": "functional", "conditions": "dose 0.01-0.3 %"}}, "note": "The source made the active and inactive calls. No cut-off for these calls is given here.", "data": [{"molecule": "Cl.N[C@@H]1[C@@H](O)[C@H](O)[C@@H](CO)O[C@H]1O", "values": [{"measurement": "Activity", "setting": "Osteoblast [1]", "value": "Active"}, {"measurement": "Activity", "setting": "Danio rerio [2]", "value": "Active"}, {"measurement": "Activity", "setting": "[3]", "value": 12, "unit": "%"}, {"measurement": "Activity", "setting": "Osteoblast [4]", "value": "Active"}, {"measurement": "Activity", "setting": "Danio rerio [5]", "value": "Active"}, {"measurement": "Activity", "setting": "Danio rerio [6]", "value": "Active"}, {"measurement": "Activity", "setting": "Osteoblast [7]", "value": "Active"}, {"measurement": "Activity", "setting": "Danio rerio [8]", "value": "Active"}, {"measurement": "Activity", "setting": "[9]", "value": 40, "unit": "%"}, {"measurement": "Activity", "setting": "Danio rerio [10]", "value": "Active"}, {"measurement": "Activity", "setting": "Danio rerio [11]", "value": "Active"}, {"measurement": "Activity", "setting": "Osteoblast [12]", "value": "Active"}, {"measurement": "Activity", "setting": "Danio rerio [13]", "value": 50, "unit": "%"}, {"measurement": "Activity", "setting": "Danio rerio [14]", "value": "Active"}, {"measurement": "Activity", "setting": "Osteoblast [15]", "value": "Active"}, {"measurement": "Activity", "setting": "Danio rerio [16]", "value": "Active"}, {"measurement": "Activity", "setting": "Danio rerio [17]", "value": "Active"}, {"measurement": "Activity", "setting": "Danio rerio [18]", "value": "Active"}, {"measurement": "Activity", "setting": "Danio rerio [19]", "value": "Active"}, {"measurement": "Activity", "setting": "Danio rerio [20]", "value": "Active"}, {"measurement": "Activity", "setting": "[21]", "value": 28, "unit": "%"}, {"measurement": "Activity", "setting": "Osteoblast [22]", "value": "Active"}, {"measurement": "Activity", "setting": "Danio rerio [23]", "value": 20, "unit": "%"}, {"measurement": "Activity", "setting": "Danio rerio [24]", "value": "Active"}, {"measurement": "Activity", "setting": "Danio rerio [25]", "value": "Active"}, {"measurement": "Activity", "setting": "Danio rerio [26]", "value": "Active"}, {"measurement": "Activity", "setting": "[27]", "value": 16, "unit": "%"}, {"measurement": "Activity", "setting": "[28]", "value": 16, "unit": "%"}, {"measurement": "Activity", "setting": "[29]", "value": 100, "unit": "%"}, {"measurement": "Activity", "setting": "Danio rerio [30]", "value": "Active"}, {"measurement": "Activity", "setting": "Danio rerio [31]", "value": "Active"}, {"measurement": "Activity", "setting": "Danio rerio [32]", "value": "Active"}, {"measurement": "Activity", "setting": "Danio rerio [33]", "value": "Active"}, {"measurement": "Activity", "setting": "Danio rerio [34]", "value": "Active"}]}]}
